Source: patent publication US20230250060A1 (IFM Due, Inc., priority 2022, published 2023)
pEC50: −log10 of the molar value.

Molecular target: T1, STING (Homo sapiens, UniProt Q86WV6, G230A/H232R/R293Q/R71H)
T1 construct: host or cells: THP1-Dual KO-IFNAR2 cells
Assay: STING reporter assay (luciferase) in THP1-Dual KO-IFNAR2 cells stimulated with 2′3′cGAMP
Assay type: cell-based
Settings: 2′3′cGAMP 15 μM final, 24 h, luciferase reporter activity, read-out: Pharmaron, THP1_IFNAR2 STING 24 h Luci Normalized: GeoMean EC50
Method in brief: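 THP1-Dual KO-IFNAR2 cells (2×10E6 cells/mL) exposed to compounds at 0.0017-100 μM final and stimulated with 2′3′cGAMP (15 μM final) delivered via Lipofectamine 2000. After 24 h at 37° C., secreted luciferase in supernatant read with QUANTI-Luc Plus; EC50 derived from luminescence.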

T1 sequence (Q86WV6 whole entry R71H/G230A/H232R/R293Q): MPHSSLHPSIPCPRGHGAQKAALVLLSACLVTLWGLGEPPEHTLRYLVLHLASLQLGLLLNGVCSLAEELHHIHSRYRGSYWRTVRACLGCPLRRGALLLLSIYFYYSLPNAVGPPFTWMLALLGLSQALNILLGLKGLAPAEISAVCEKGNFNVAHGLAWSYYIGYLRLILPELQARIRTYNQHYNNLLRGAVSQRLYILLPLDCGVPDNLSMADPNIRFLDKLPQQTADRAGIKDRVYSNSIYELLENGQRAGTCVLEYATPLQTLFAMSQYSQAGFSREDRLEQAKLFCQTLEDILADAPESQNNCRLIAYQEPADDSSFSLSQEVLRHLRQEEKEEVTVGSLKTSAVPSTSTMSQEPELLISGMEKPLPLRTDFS

With O=C(Nc1c[nH]c2ccc(OCC[C@@H]3C[C@@H]4CN(CC(F)(F)F)C[C@@H]4C3)cc12)c1nccs1 [Compound 188, N-(5-(2-((3aR,5r,6aS)-2-(2,2,2-trifluoroethyl)octahydrocyclopenta[c]pyrrol-5-yl)ethoxy)-1H-indol-3-yl)thiazole-2-carboxamide] as the compound, how does the pEC50 read?
The pEC50 was 6.00 to 6.70.

With O=C(Nc1c[nH]c2ccc(OCc3ccc(C(F)(F)F)cc3)cc12)c1cscn1 [Compound 165, N-(5-((4-(trifluoromethyl)benzyl)oxy)-1H-indol-3-yl)thiazole-4-carboxamide] as the compound, how does the pEC50 read?
Its pEC50 is 5.30 to 6.00.

O=C(Nc1c[nH]c2ccc(O[C@H]3C[C@@H](c4ccc(C(F)(F)F)cc4)C3)cc12)C1CC12CC2 (some centres unmarked) [Compound 172, N-(5-((1s,3s)-3-(4-(trifluoromethyl)phenyl)cyclobutoxy)-1H-indol-3-yl)spiro[2.2]pentane-1-carboxamide] was tested. Which pEC50 did it give?
Its pEC50 is 6.00 to 6.70.

How did the pEC50 turn out when Cn1ccnc1C(=O)Nc1c[nH]c2ccc(O[C@H]3C[C@@H](c4ccc(C(F)(F)F)cc4)C3)cc12 [Compound 139, 1-methyl-N-(5-((1s,3s)-3-(4-(trifluoromethyl)phenyl)cyclobutoxy)-1H-indol-3-yl)-1H-imidazole-2-carboxamide] was run?
Its pEC50 is 6.00 to 6.70.

How did the pEC50 turn out when O=C(Nc1c[nH]c2ccc(O[C@H]3C[C@H](c4ccc(C(F)(F)F)cc4)C3)cc12)C12CC(C1)C2 [Compound 212, N-{5-[(1R,3R)-3-[4-(trifluoromethyl)phenyl]cyclobutoxy]-1H-indol-3-yl}bicyclo[1.1.1]pentane-1-carboxamide] was run?
The pEC50 was 6.70 to 7.40.

O=C(CC1CC1)Nc1c[nH]c2ccc(OCC[C@@H]3C[C@@H]4CN(CC(F)(F)F)C[C@@H]4C3)cc12 [Compound 184] was tested. Which pEC50 did it give?
The pEC50 was 6.00 to 6.70.

With O=C(Nc1c[nH]c2ccc(OCC[C@@H]3C[C@@H]4CN(CC(F)(F)F)C[C@@H]4C3)cc12)C1CC2(COC2)C1 [Compound 206, N-(5-(2-((3aR,5r,6aS)-2-(2,2,2-trifluoroethyl)octahydrocyclopenta[c]pyrrol-5-yl)ethoxy)-1H-indol-3-yl)-2-oxaspiro[3.3]heptane-6-carboxamide] as the compound, how does the pEC50 read?
Its pEC50 is 6.00 to 6.70.

How did the pEC50 turn out when O=C(Nc1c[nH]c2ccc(O[C@H]3C[C@@H](c4ccc(C(F)(F)F)cc4)C3)cc12)C1CC2(CC2)C1 [Compound 156, N-(5-((1s,3s)-3-(4-(trifluoromethyl)phenyl)cyclobutoxy)-1H-indol-3-yl)spiro[2.3]hexane-5-carboxamide] was run?
Its pEC50 is 6.00 to 6.70.

O=C(Nc1c[nH]c2ccc(OCc3ccc(C(F)(F)F)cc3)cc12)c1cccnc1 [Compound 148, N-(5-((4-(trifluoromethyl)benzyl)oxy)-1H-indol-3-yl)nicotinamide] was tested. Which pEC50 did it give?
Its pEC50 is 6.00 to 6.70.

O=C(Nc1c[nH]c2ccc(O[C@H]3C[C@@H](c4ccc(C(F)(F)F)cc4)C3)cc12)C12CC(F)(C1)C2 [Compound 132, 3-fluoro-N-(5-((1s,3s)-3-(4-(trifluoromethyl)phenyl)cyclobutoxy)-1H-indol-3-yl)bicyclo[1.1.1]pentane-1-carboxamide] was tested. Which pEC50 did it give?
The pEC50 was 6.00 to 6.70.

Cc1noc(C)c1C(=O)Nc1c[nH]c2ccc(CCOc3ccc(C(F)(F)F)cc3)cc12 [Compound 119, 3,5-dimethyl-N-(5-(2-(4-(trifluoromethyl)phenoxy)ethyl)-1H-indol-3-yl)isoxazole-4-carboxamide] was tested. Which pEC50 did it give?
The pEC50 was 6.00 to 6.70.

How did the pEC50 turn out when O=C(Nc1c[nH]c2ccc(O[C@H]3C[C@H](c4ccc(C(F)(F)F)cc4)C3)cc12)c1ccccn1 [Compound 228, N-{5-[(1R,3R)-3-[4-(trifluoromethyl)phenyl]cyclobutoxy]-1H-indol-3-yl}pyridine-2-carboxamide] was run?
The pEC50 was 6.00 to 6.70.

With Cc1noc(C)c1C(=O)Nc1c[nH]c2ccc(O[C@H]3C[C@H](c4ccc(C(F)(F)F)cc4)C3)cc12 [Compound 234, 3,5-dimethyl-N-{5-[(1R,3R)-3-[4-(trifluoromethyl)phenyl]cyclobutoxy]-1H-indol-3-yl}-1,2-oxazole-4-carboxamide] as the compound, how does the pEC50 read?
The pEC50 was 6.00 to 6.70.

With O=C(Nc1c[nH]c2ccc(O[C@H]3C[C@@H](c4ccc(C(F)(F)F)cc4)C3)cc12)c1cncs1 [Compound 178, N-(5-((1s,3s)-3-(4-(trifluoromethyl)phenyl)cyclobutoxy)-1H-indol-3-yl)thiazole-5-carboxamide] as the compound, how does the pEC50 read?
Its pEC50 is 6.00 to 6.70.

Cc1noc(C)c1C(=O)Nc1c[nH]c2ccc(OCc3ccc(C(F)(F)F)cc3)cc12 [Compound 153, 3,5-dimethyl-N-(5-((4-(trifluoromethyl)benzyl)oxy)-1H-indol-3-yl)isoxazole-4-carboxamide] was tested. Which pEC50 did it give?
Its pEC50 is 6.00 to 6.70.

O=C(Nc1c[nH]c2ccc(OCCc3ccc(C(F)(F)F)cc3)cc12)C12CC(F)(C1)C2 [Compound 108, 3-fluoro-N-(5-(4-(trifluoromethyl)phenethoxy)-1H-indol-3-yl)bicyclo[1.1.1]pentane-1-carboxamide] was tested. Which pEC50 did it give?
The pEC50 was 6.00 to 6.70.

O=C(Nc1c[nH]c2ccc(CCOc3ccc(C(F)(F)F)cc3)cc12)c1ccccn1 [Compound 196, N-(5-(2-(4-(trifluoromethyl)phenoxy)ethyl)-1H-indol-3-yl)picolinamide] was tested. Which pEC50 did it give?
The pEC50 was 5.30 to 6.00.

With O=C(Nc1c[nH]c2ccc(OCC[C@@H]3C[C@@H]4CN(CC(F)(F)F)C[C@@H]4C3)cc12)c1cscn1 [Compound 193, N-(5-(2-((3aR,5r,6aS)-2-(2,2,2-trifluoroethyl)octahydrocyclopenta[c]pyrrol-5-yl)ethoxy)-1H-indol-3-yl)thiazole-4-carboxamide] as the compound, how does the pEC50 read?
Its pEC50 is 6.00 to 6.70.

O=C(Nc1c[nH]c2ccc(OCC[C@@H]3C[C@@H]4CN(CC(F)(F)F)C[C@@H]4C3)cc12)C12CC(F)(C1)C2 [Compound 185, 3-fluoro-N-(5-(2-((3aR,5r,6aS)-2-(2,2,2-trifluoroethyl)octahydrocyclopenta[c]pyrrol-5-yl)ethoxy)-1H-indol-3-yl)bicyclo[1.1.1]pentane-1-carboxamide] was tested. Which pEC50 did it give?
Its pEC50 is 6.00 to 6.70.

O=C(CC1CC1)Nc1c[nH]c2ccc(OCCc3ccc(C(F)(F)F)cc3)cc12 [Compound 125, 2-cyclopropyl-N-(5-(4-(trifluoromethyl)phenethoxy)-1H-indol-3-yl)acetamide] was tested. Which pEC50 did it give?
Its pEC50 is 6.70 to 7.40.

With Cn1ccnc1C(=O)Nc1c[nH]c2ccc(OCc3ccc(C(F)(F)F)cc3)cc12 [Compound 136, 1-methyl-N-(5-((4-(trifluoromethyl)benzyl)oxy)-1H-indol-3-yl)-1H-imidazole-2-carboxamide] as the compound, how does the pEC50 read?
Its pEC50 is 6.00 to 6.70.

How did the pEC50 turn out when O=C(Nc1c[nH]c2ccc(OCCc3ccc(C(F)(F)F)cc3)cc12)c1ccccn1 [Compound 124, N-(5-(4-(trifluoromethyl)phenethoxy)-1H-indol-3-yl)picolinamide] was run?
The pEC50 was 5.30 to 6.00.

How did the pEC50 turn out when O=C(Nc1c[nH]c2ccc(OCCc3ccc(C(F)(F)F)cc3)cc12)c1cn(-c2cnc(N3CCC(F)(F)CC3)c(F)c2)nn1 [Compound 245, 1-(6-(4,4-difluoropiperidin-1-yl)-5-fluoropyridin-3-yl)-N-(5-(4-(trifluoromethyl)phenethoxy)-1H-indol-3-yl)-1H-1,2,3-triazole-4-carboxamide] was run?
The pEC50 was 6.00 to 6.70.

How did the pEC50 turn out when Cc1oncc1C(=O)Nc1c[nH]c2ccc(OCCc3ccc(C(F)(F)F)cc3)cc12 [Compound 111] was run?
The pEC50 was 4.00 to 5.30.

With Cn1nccc1C(=O)Nc1c[nH]c2ccc(CCOc3ccc(C(F)(F)F)cc3)cc12 [Compound 103, 1-methyl-N-(5-(2-(4-(trifluoromethyl)phenoxy)ethyl)-1H-indol-3-yl)-1H-pyrazole-5-carboxamide] as the compound, how does the pEC50 read?
Its pEC50 is 6.00 to 6.70.

O=C(Nc1c[nH]c2ccc(OCCc3ccc(C(F)(F)F)cc3)cc12)c1nccs1 [Compound 110, N-(5-(4-(trifluoromethyl)phenethoxy)-1H-indol-3-yl)thiazole-2-carboxamide] was tested. Which pEC50 did it give?
The pEC50 was 6.00 to 6.70.
